Data: publication PMC10604187 (Antioxidants, 2023)
Like-named read-outs stand apart in the source and are kept apart here.

Legend:
[1] = test system: freshly-cut apple slices; assay: Anti-browning assay of freshly-cut apple slices; parameters: species or system Malus pumila Miller; conditions: for L* value change (ΔL*): 48 h storage time point; for inhibition at 5000 µM: Malus pumila, read-out: inhibition of apple slice browning (relative browning intensity) compared to control
Procedure: Apples (Malus pumila Miller) of similar maturity were purchased from a local market (Emart24®, Busan, Republic of Korea). The apples were cut into small equal-sized pieces (W × D × H, 1.5 ± 0.1 cm × 1.5 ± 0.1 cm × 0.3 ± 0.05 cm). Three apple slices were placed in glass dishes with a diameter of 5 cm.
(§1) The apple slice dishes were placed in an incubator maintained at 20 °C. Kojic acid and PTU were used as positive controls. All samples, except PTU, were prepared as aqueous solutions. PTU test samples were prepared in a DMSO solution as it is only soluble in water at very low concentrations.
At five time points (0, 12, 24, 36, and 48 h), apple slices were photographed using a camera (iPhone 11), and browning colors (a*, b*, and L*) were measured using a CR-10 spectrophotometer (Konica Minolta Sensing, Inc., Osaka, Japan). In the spectrophotometer, the colors were described by a* (redness and greenness), b* (yellowness and blueness), and L* (lightness) values according to the Commission Internationale de l’Eclairage (CIE) color system. The overall color difference (ΔE) was calculated using the following formula: (ΔE)^2 = (a − ainitial)^2 + (b − binitial)^2 + (L − Linitial)^2. In addition, based on the photographs, the relative browning intensities were calculated using CS analyzer 3.2 image analysis software.

[2] = Water solubility (statement); format: physicochemical
Procedure: as §1

[3] = ABTS radical cation scavenging assay; conditions: 100 μM test samples
Procedure: The ABTS radical cation-scavenging activities of analogs 1–10 were investigated according to a previously described protocol with minor modifications. Briefly, to prepare a test solution for the ABTS radical cation scavenging activity, potassium persulfate aqueous solution (10 mL, 2.45 mM) was mixed with ABTS aqueous solution (10 mL, 7 mM) and left for 12 h at room temperature in the dark until the absorbance remained constant. Prior to the ABTS radical cation scavenging assay experiments, the absorbance at 734 nm was adjusted to 0.70 ± 0.02 by diluting the ABTS radical cation solution with water. An aliquot (10 µL) of 1–10 or Trolox (the positive reference material) at 100 µM was mixed with the ABTS radical cation solution (90 µL) in each well of a 96-well plate and incubated for 10 min at ambient temperature in the dark. The optical density of each well was measured at 734 nm using a VersaMax® microplate reader. All experiments were performed independently 3 times.
The antioxidant potential of 1–10 was investigated using the ABTS radical cation scavenging technique. ABTS can be easily oxidized to the corresponding radical cation by oxidants such as potassium persulfate. Because of the correlation between melanogenesis and antioxidant activity, the ABTS radical-scavenging ability of 1–10 was examined. […]

[4] = In vitro ROS scavenging assay (SIN-1, DCFH-DA); conditions: 40 μM, ROS enhanced by SIN-1
Procedure: At emission and excitation wavelengths of 535 and 485 nm, fluorescence intensity was measured using a fluorescence microplate reader (Berthold Technologies GmbH & Co., Wien, Austria).
Hydrolyzed DCFH reacts with ROS to produce the fluorescent substance dichlorofluorescein (DCF). The ROS-scavenging effects of the analogs were determined by measuring the emitted fluorescence. The in vitro ROS-scavenging effects were measured using 40 μM test samples.

[5] = DPPH radical scavenging assay; conditions: 1 mM test samples, 0.5 h
Procedure: The DPPH radical scavenging activities of analogs 1–10 were evaluated according to a previously described protocol to examine the antioxidant effects of analogs 1–10. Briefly, an aliquot (180 µL) of DPPH methanol solution (0.2 mM) was mixed with a 2-MBI analogs’ DMSO (dimethyl sulfoxide) solution in each well of a 96-well plate, and the mixture was left in the dark for 0.5 h at room temperature. The optical density of each well was analyzed using a microplate reader (VersaMax®, Molecular Devices, Sunnyvale, CA, USA).
As the antioxidant ability of a compound may be involved in the inhibition of melanogenesis, the antioxidant effects of analogs 1–10 on DPPH radicals were explored. Vitamin C (L-ascorbic acid), a strong antioxidant, was used as the positive control. After mixing the test sample and DPPH solutions and standing at room temperature in the dark for 0.5 h, the absorbances of the mixed samples were measured at 517 nm using 1 mM test samples.

[6] = test system: HEK-293 cells; assay: Cell viability (EZ-Cytox) assay in HEK-293 cells; format: cell-based, human; conditions: 40 μM (maximum concentration), 24 h
Procedure: HEK-293 cells were obtained from American Type Culture Collection (ATCC; Manassas, VA, USA). Trypsin, streptomycin, fetal bovine serum (FBS), phosphate-buffered saline (PBS), penicillin, and Dulbecco’s modified Eagle’s medium (DMEM) for HEK-293 cell culture were purchased from Thermo Fisher Scientific (Carlsbad, CA, USA). HEK-293 cells were cultured in a DMEM solution containing penicillin (100 IU/mL), 10% heat-inactivated FBS, and streptomycin (100 µg/mL) in a 5% CO2 environment at 37 °C.
Cytotoxicity assays were performed using an EZ-Cytox assay (EZ-1000, DoGenBio, Seoul, Republic of Korea) in HEK-293 cells. Briefly, 96-well plates containing HEK-293 cells at a density of 1 × 10^4 cells per well were cultured in a 5% CO2 environment at 37 °C for 24 h. After 20 h, cells were treated with 2-MBI analogs 1−10 at 4 different concentrations (final concentration: 0, 2.5, 10, and 40 µM) and incubated for 24 h at 37 °C in a 5% CO2 environment. Then, 10 µL aliquot of the EZ-Cytox solution was added to each well. After 2 h incubation at 37 °C, the absorbance of each well was measured using a microplate reader (VersaMax®; Molecular Devices) at 450 nm.

[7] = target: T1, mushroom tyrosinase (Agaricus bisporus, UniProt C7FF04); assay: Mushroom tyrosinase inhibitory assay, diphenolase activity (L-dopa substrate); format: biochemical; conditions: vs kojic acid
Procedure: The effect of the analogs on enzyme inhibition was investigated in the presence of L-dopa and L-tyrosine. […] After incubating the assay mixture for 0.5 h at 37 °C, the amounts of dopachrome produced during the incubation time were evaluated by measuring the absorbances of each well at 475 nm using a VersaMax^TM microplate reader (Molecular Devices, Sunnyvale, CA, USA).
Target sequence in this assay (C7FF04 2-392): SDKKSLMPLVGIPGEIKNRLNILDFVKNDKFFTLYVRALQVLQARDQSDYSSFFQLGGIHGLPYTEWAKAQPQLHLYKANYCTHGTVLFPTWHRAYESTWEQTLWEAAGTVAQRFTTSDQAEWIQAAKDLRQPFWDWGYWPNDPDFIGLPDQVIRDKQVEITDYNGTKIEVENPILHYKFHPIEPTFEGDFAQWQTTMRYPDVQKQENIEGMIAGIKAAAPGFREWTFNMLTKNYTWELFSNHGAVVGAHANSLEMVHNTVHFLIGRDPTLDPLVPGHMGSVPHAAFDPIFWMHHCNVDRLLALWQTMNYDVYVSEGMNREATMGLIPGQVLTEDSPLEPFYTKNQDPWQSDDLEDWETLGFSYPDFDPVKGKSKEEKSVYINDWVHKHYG

[8] = target: T1, mushroom tyrosinase; assay: biochemical; conditions: for mode of tyrosinase inhibition: Lineweaver–Burk plots, L-dopa
Procedure: Briefly, a dimethyl sulfoxide (DMSO) solution (10 µL) containing test analogs (final concentrations: 0, 5, 10, and 20 nM) was added to the wells of a 96-well plate containing mushroom tyrosinase (20 µL, 200 units/mL) and an aqueous solution (170 µL) consisting of L-dopa (final concentrations: 0.125, 0.25, 0.5, 1, 2, 4, and 8 mM) and phosphate buffer (final concentration: 14.7 mM, pH 6.5). The increase in the absorbance at 475 nm (ΔOD475/min) was measured using a VersaMax^TM microplate reader to determine the initial rate of dopachrome generation. The maximal velocity (Vmax) was determined from the y-axis intercept values of the Lineweaver–Burk plots obtained at seven different L-dopa concentrations. Dixon plots were obtained from Lineweaver–Burk plots for inhibitors by plotting the reciprocal of the reaction velocity against the inhibitor concentration.
Target sequence in this assay (C7FF04 1-392): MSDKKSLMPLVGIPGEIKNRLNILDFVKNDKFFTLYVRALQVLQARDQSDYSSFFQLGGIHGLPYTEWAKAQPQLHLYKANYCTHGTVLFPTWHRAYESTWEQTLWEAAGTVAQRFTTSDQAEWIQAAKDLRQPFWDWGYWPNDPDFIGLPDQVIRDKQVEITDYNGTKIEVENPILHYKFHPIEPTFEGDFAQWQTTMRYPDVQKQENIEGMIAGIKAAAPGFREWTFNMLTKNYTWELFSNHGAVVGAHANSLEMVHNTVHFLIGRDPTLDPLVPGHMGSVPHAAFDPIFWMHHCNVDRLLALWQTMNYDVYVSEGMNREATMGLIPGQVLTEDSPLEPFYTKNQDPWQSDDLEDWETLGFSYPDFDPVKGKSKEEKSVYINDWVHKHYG

[9] = 5 mM spray (analogs as sodium salts)
[10] = 5 mM spray every 12 h (analogs as sodium salts), 36 h storage, 20 °C

## NC(=S)Nc1ccccc1 [PTU, phenylthiourea, reference compound]
[1]; [9]
  L* value change (ΔL*): 3.4
[1]
  inhibition at 5000 µM: 21.9%
[2]
  water solubility: poorly soluble in water

## Cc1c(C)c2c(c(C)c1O)CCC(C)(C(=O)O)O2 (stereo not drawn) [Trolox, reference compound]
[3]
  ABTS radical cation scavenging activity, inhibition: 96%
[4]
  in vitro ROS scavenging effect: greatly reduced

## O=C1O[C@H]([C@@H](O)CO)C(O)=C1O [Vitamin C, L-ascorbic acid]
[5]
  DPPH radical scavenging activity, inhibition: 98%

## Sc1nc2ccccc2[nH]1 [analog 1, 1H-Benzo[d]imidazole-2-thiol]
[1]
  inhibition at 5000 µM: 28.5 to 36.1%

## Cc1cc2nc(S)[nH]c2cc1C [analog 3, 5,6-Dimethyl-1H-benzo[d]imidazole-2-thiol]
[6]
  cytotoxicity in HEK-293 cells: weakly

## Sc1nc2cc(Cl)ccc2[nH]1 [analog 4, 5-Chloro-1H-benzo[d]imidazole-2-thiol]
[4]
  in vitro ROS scavenging effect: most potently reduced

## COc1ccc2[nH]c(S)nc2c1 [analog 5, 5-Methoxy-1H-benzo[d]imidazole-2-thiol]
[1]; [9]
  L* value change (ΔL*): 8.2

## O=C(c1ccccc1)c1ccc2[nH]c(S)nc2c1 [analog 6, (2-Mercapto-1H-benzo[d]imidazol-5-yl)(phenyl)methanone]
[7]
  fold more potent than kojic acid, diphenolase activity: 970 fold
[6]
  cytotoxicity in HEK-293 cells: moderately cytotoxic
[8]
  Ki: 8.6 nM
  mode of tyrosinase inhibition: competitive

## O=[N+]([O-])c1ccc2[nH]c(S)nc2c1 [analog 7, 5-Nitro-1H-benzo[d]imidazole-2-thiol]
[1]; [9]
  L* value change (ΔL*): 1.3

## Cc1cccc2[nH]c(S)nc12 [analog 9, 4-Methyl-1H-benzo[d]imidazole-2-thiol]
[3]
  ABTS radical cation scavenging activity, inhibition: 90%
[1]; [10]
  inhibition at 5000 µM: 28.5 to 36.1%

## N#Cc1ccc2[nH]c(S)nc2c1 [analog 10, 2-Mercapto-1H-benzo[d]imidazole-5-carbonitrile]
[1]; [9]
  L* value change (ΔL*): 3.1
[1]; 5 mM spray (analogs as sodium salts), over 48 h storage
  overall color difference (ΔE) of apple slices: lowest increase in ΔE
[1]; [10]
  inhibition at 5000 µM: 28.5 to 36.1%
[8]
  Ki: 14.8 nM
  mode of tyrosinase inhibition: competitive

## O=c1cc(CO)occ1O [kojic acid, reference compound]
[1]; [9]
  L* value change (ΔL*): 6.4
[1]; [10]
  inhibition at 5000 µM: 7%
